ChEMBL document CHEMBL3867464, “Novel substituted aminothiazoles as potent and selective anti-hepatocellular carcinoma agents” (Bioorg Med Chem Lett, 2016)
Values after ≈ are worked out from the molar mass of the structure shown.

Key:
[1] = Stability in human liver microsomes assessed as parent compound remaining measured at 60 mins; format: ADME; conditions: read-out: Stability
[2] = Cytotoxicity against human HuH7 cells assessed as decrease in cell viability after 72 hrs by MTT assay; format: functional; conditions: Huh-7, 72 h
[3] = Cytotoxicity against human THLE2 cells assessed as decrease in cell viability after 72 hrs by MTT assay; format: toxicity, cell-based; conditions: thle-2, 72 h
[4] = Cytotoxicity against human PH5CH cells assessed as decrease in cell viability after 72 hrs by MTT assay; format: toxicity, cell-based
Huh-7 [5] = experiment: Selectivity index, ratio of CC50 for human THLE2 cells to CC50 for human HuH7 cells; format: functional
Huh-7 [6] = experiment: Selectivity index, ratio of CC50 for human PH5CH cells to CC50 for human HuH7 cells; format: functional
[7] = Aqueous solubility of the compound at pH 4; format: physicochemical; conditions: buffer
[8] = Aqueous solubility of the compound at pH 7.4; format: physicochemical; conditions: buffer
[9] = Stability in mouse liver microsomes assessed as parent compound remaining measured at 60 mins; format: ADME; conditions: read-out: Stability
[10] = Tmax in CD-1 mouse at 1 mg/kg, iv; format: ADME, organism-based; conditions: in vivo
[11] = Tmax in CD-1 mouse at 2.5 mg/kg, po; format: ADME, organism-based; conditions: in vivo
[12] = Cmax in CD-1 mouse at 2.5 mg/kg, po; format: ADME, organism-based; design: dose 2.5 mg/kg, route oral; conditions: in vivo
[13] = Half life in CD-1 mouse at 1 mg/kg, iv; format: ADME, organism-based; conditions: in vivo
[14] = Volume of distribution at steady state in CD-1 mouse at 1 mg/kg, iv; format: ADME, organism-based; conditions: in vivo, read-out: Vdss
[15] = AUClast in CD-1 mouse at 1 mg/kg, iv; format: ADME, organism-based; conditions: in vivo
[16] = AUClast in CD-1 mouse at 2.5 mg/kg, po; format: ADME, organism-based; conditions: in vivo
[17] = Oral bioavailability in CD-1 mouse at 2.5 mg/kg; format: ADME, organism-based; conditions: in vivo
[18] = Drug uptake in CD-1 mouse liver at 2.5 mg/kg, po; format: ADME, organism-based; conditions: in vivo
[19] = Cytotoxicity against human hepatic cancer cells derived from HCC patient assessed as change in cell proliferation by measuring response rate at 1 uM after 48 hrs by Ki-67 immunostaining based assay; format: functional, Cancer cell lines
[20] = Drug metabolism in human liver microsomes assessed as CYP450-mediated 4-(pyrazin-2-yl)-2-(pyrimidin-2-ylamino)thiazole-5-carboxylic acid formation measured at 60 mins; format: ADME; conditions: 1 h
[21] = Drug metabolism in mouse liver microsomes assessed as CYP450-mediated 4-(pyrazin-2-yl)-2-(pyrimidin-2-ylamino)thiazole-5-carboxylic acid formation measured at 60 mins; format: ADME; conditions: 1 h
[22] = Solubility of the compound in methylene chloride solution; format: physicochemical
[23] = Solubility of the compound in ethyl acetate solution; format: physicochemical
[24] = Solubility of the compound in ethanol solution; format: physicochemical
[25] = Tmax in CD-1 mouse at 2 mg/kg, iv; format: ADME, organism-based; conditions: in vivo
[26] = Tmax in CD-1 mouse at 10 mg/kg, po; format: ADME, organism-based; conditions: in vivo
[27] = Cmax in CD-1 mouse at 10 mg/kg, po; format: ADME, organism-based; design: dose 10 mg/kg, route oral; conditions: in vivo
[28] = Half life in CD-1 mouse at 2 mg/kg, iv; format: ADME, organism-based; conditions: in vivo
[29] = Half life in CD-1 mouse at 10 mg/kg, po; format: ADME, organism-based; conditions: in vivo
[30] = Volume of distribution at steady state in CD-1 mouse at 2 mg/kg, iv; format: ADME, organism-based; conditions: in vivo, read-out: Vdss
[31] = AUClast in CD-1 mouse at 2 mg/kg, iv; format: ADME, organism-based; conditions: in vivo
[32] = AUClast in CD-1 mouse at 10 mg/kg, po; format: ADME, organism-based; conditions: in vivo
[33] = Oral bioavailability in CD-1 mouse at 10 mg/kg; format: ADME, organism-based; conditions: in vivo
[34] = Drug metabolism in human liver microsomes assessed as CYP450-mediated 4-(pyridin-2-yl)-2-(pyrimidin-2-ylamino)thiazole-5-carboxylic acid formation measured at 60 mins; format: ADME; conditions: 1 h
[35] = Drug metabolism in mouse liver microsomes assessed as CYP450-mediated 4-(pyridin-2-yl)-2-(pyrimidin-2-ylamino)thiazole-5-carboxylic acid formation measured at 60 mins; format: ADME; conditions: 1 h
[36] = Drug level in human liver microsomes treated with isopropyl 4-(pyrazin-2-yl)-2-(pyrimidin-2-ylamino)thiazole-5-carboxylate assessed as CYP450-mediated compound formation measured at 60 mins; format: ADME; conditions: 1 h
[37] = Drug level in mouse liver microsomes treated with isopropyl 4-(pyrazin-2-yl)-2-(pyrimidin-2-ylamino)thiazole-5-carboxylate assessed as CYP450-mediated compound formation measured at 60 mins; format: ADME; conditions: 1 h
[38] = Drug level in human liver microsomes treated with IHVR-04042 assessed as CYP450-mediated compound formation measured at 60 mins; format: ADME; conditions: 1 h
[39] = Drug level in mouse liver microsomes treated with IHVR-04042 assessed as CYP450-mediated compound formation measured at 60 mins; format: ADME; conditions: 1 h

Structure (SMILES) | CC50 [2] [µM] | CC50 [3] [µM] | CC50 [4] [µM] | Selectivity Index (Huh-7 [5]) | Selectivity Index (Huh-7 [6]) | other results
CC(C)OC(=O)c1sc(Nc2ncccn2)nc1-c1cnccn1 | 0.11 | 50 | 50 | 471.7 | 471.7 | remaining at 1 h [1]: 70.9%; solubility [7]: 6.35 µM (≈ 2.17 µg/mL); solubility [8]: 5.2 µM (≈ 1.78 µg/mL); remaining at 1 h [9]: 36.2%; Tmax [10]: 0 h; Tmax [11]: 26.4 min; Cmax [12]: 48.7 ng/mL; half-life [13]: 26.4 min; Vd [14]: 3.49 L/kg; AUClast [15]: 142 ng·mL·h; AUClast [16]: 21.6 ng·mL·h; bioavailability [17]: 15.2%; Drug uptake [18]: 33 ng/g; Activity [19]: 38%; Drug metabolism [20]: Metabolite_Detected; Drug metabolism [21]: Metabolite_Detected
CCOC(=O)c1sc(Nc2ncccn2)nc1-c1cnccn1 | 0.59 | 47.1 | 50 | 80.06 | 85.03 | –
CC(C)OC(=O)c1sc(Nc2ncccn2)nc1-c1ccncn1 | 1.21 | 46.2 | 50 | 38.11 | 41.24 | –
CCOC(=O)c1sc(Nc2ncccn2)nc1-c1ncccc1C | 46.1 | 49.1 | 50 | 1.07 | – | –
c1ccc(-c2csc(Nc3ncccn3)n2)nc1 | 1.1 | – | – | 35.45 | 40.294 | –
CCOC(=O)Cc1sc(Nc2ncccn2)nc1-c1ccccn1 | 1.39 | 50 | 50 | 35.94 | 35.94 | –
CCOCc1sc(Nc2ncccn2)nc1-c1ccccn1 | 3.19 | 41.8 | 39 | 13.08 | 12.23 | –
CC(C)OC(=O)c1sc(N(COP(=O)(OC(C)(C)C)OC(C)(C)C)c2ncccn2)nc1-c1ccccn1 | 0.38 | 42.2 | 50 | 111.42 | 131.93 | solubility [22]: Soluble; solubility [23]: Soluble; solubility [24]: Soluble
CCOC(=O)c1sc(Nc2ncccn2)nc1-c1cc(C(F)(F)F)ccn1 | 0.17 | 15 | 9.34 | 90.32 | 56.24 | –
CC(C)OC(=O)c1sc(Nc2ncccn2)nc1-c1ccccn1 | 0.41 | 50 | 49.8 | 123.39 | – | –
c1ccc(-c2csc(NCc3ncccn3)n2)nc1 | 40.5 | 49.6 | 49.8 | 1.22 | – | –
COCCOCN(c1ncccn1)c1nc(-c2cnccn2)c(C(=O)OC(C)C)s1 | 50 | 50 | 50 | – | 1 | solubility [22]: Soluble; solubility [23]: Soluble; solubility [24]: Soluble
CCOC(=O)c1sc(NCc2ncccn2)nc1-c1ccccn1 | 50 | – | – | 1 | 1 | –
CCOC(=O)c1sc(Nc2ncccn2)nc1-c1ccccn1 | 0.18 | – | – | 253.954 | 214.328 | remaining at 1 h [1]: 63.1%; solubility [7]: 112.84 µM (≈ 36.9 µg/mL); solubility [8]: 23.84 µM (≈ 7.8 µg/mL); remaining at 1 h [9]: 43.3%; Tmax [25]: 0 h; Tmax [26]: 34.8 min; Cmax [27]: 94.1 ng/mL; half-life [28]: 14.4 min; half-life [29]: 115 min; Vd [30]: 1.45 L/kg; AUClast [31]: 224 ng·mL·h; AUClast [32]: 19.5 ng·mL·h; bioavailability [33]: 10%; Drug metabolism [34]: Metabolite_Detected; Drug metabolism [35]: Metabolite_Detected
CC(C)OC(=O)OCN(c1ncccn1)c1nc(-c2cnccn2)c(C(=O)OC(C)C)s1 | 0.095 | 50 | 50 | 528.17 | 528.17 | solubility [22]: Soluble; solubility [23]: Soluble; solubility [24]: Soluble
CCOC(=O)Cc1sc(NCc2ncccn2)nc1-c1ccccn1 | 49.4 | 50 | 50 | 1.01 | 1.01 | –
O=C(O)c1sc(Nc2ncccn2)nc1-c1cnccn1 | – | – | – | – | – | Drug metabolism [36]: Metabolite_Detected; Drug metabolism [37]: Metabolite_Detected
CCOCc1sc(NCc2ncccn2)nc1-c1ccccn1 | 44.8 | 49.6 | 50 | 1.11 | – | –
CCOC(=O)CCc1sc(Nc2ncccn2)nc1-c1ccccn1 | 2.05 | 10.5 | 10.1 | 5.1 | 4.93 | –
CCOC(=O)c1sc(Nc2ncccn2)nc1-c1ccncn1 | 1.6 | 40.8 | 40 | 25.46 | 24.97 | –
O=C(O)CCc1sc(Nc2ncccn2)nc1-c1ccccn1 | 14.1 | 26.4 | 17.7 | 1.87 | 1.25 | –
CC(C)OC(=O)c1sc(Nc2ncccn2)nc1-c1ncccn1 | 1.62 | 50 | 50 | 30.96 | 30.96 | –
CC(C)OC(=O)c1sc(N(COP(=O)(OC(C)(C)C)OC(C)(C)C)c2ncccn2)nc1-c1cnccn1 | 0.98 | 50 | 50 | 51.28 | 51.28 | solubility [22]: Soluble; solubility [23]: Soluble; solubility [24]: Soluble
O=C(O)c1sc(Nc2ncccn2)nc1-c1ccccn1 | – | – | – | – | – | Drug metabolism [38]: Metabolite_Detected; Drug metabolism [39]: Metabolite_Detected
